Test results published in ChEMBL document CHEMBL1201862, “PubChem BioAssay data set” (2004).
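1) Cells in 96-well plates. 2) Compound, 48 h, 5 concentrations. 3) Linear interpolation between surrounding doses. 4) Unreached endpoint = highest concentration. GI50 marks 50% less growth.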 The source made the active and inactive calls. No stated cut-off is given here; in the data, active = GI50 up to about 1.1 µM and inactive = higher.

Legend:
Experiment in all cases: inhibition of tumour cell growth, NCI panel, 48 h
SR = tested on: SR
LOX IMVI = tested on: LOX IMVI
MOLT-4 = tested on: MOLT-4
IGROV-1 = tested on: IGROV-1
NCI-H226 = tested on: NCI-H226
KM12 = tested on: KM12
MDA-N = tested on: MDA-N
PC-3 = tested on: PC-3
SK-MEL-5 = tested on: SK-MEL-5
NCI-H522 = tested on: NCI-H522
SK-MEL-2 = tested on: SK-MEL-2
SNB-19 = tested on: SNB-19
EKVX = tested on: EKVX
SK-OV-3 = tested on: SK-OV-3
786-0 = tested on: 786-0
ACHN = tested on: ACHN
Hs-578T = tested on: Hs-578T
M14 = tested on: M14
MCF7 = tested on: MCF7
HL-60 = tested on: HL-60
T47D = tested on: T47D
HOP-92 = tested on: HOP-92
RPMI-8226 = tested on: RPMI-8226
COLO 205 = tested on: COLO 205
OVCAR-3 = tested on: OVCAR-3
HT-29 = tested on: HT-29
NCI-H23 = tested on: NCI-H23
SN12C = tested on: SN12C
A498 = tested on: A498
SF-539 = tested on: SF-539
K562 = tested on: K562
HCT-15 = tested on: HCT-15
MDA-MB-231 = tested on: MDA-MB-231
U-251 = tested on: U-251
MDA-MB-435 = tested on: MDA-MB-435
UO-31 = tested on: UO-31
HOP-62 = tested on: HOP-62
A549 = tested on: A549
OVCAR-4 = tested on: OVCAR-4
CCRF-CEM = tested on: CCRF-CEM
SK-MEL-28 = tested on: SK-MEL-28
SF-268 = tested on: SF-268
CAKI-1 = tested on: CAKI-1
NCI/ADR-RES = tested on: NCI/ADR-RES
HCT-116 = tested on: HCT-116
UACC-257 = tested on: UACC-257
OVCAR-5 = tested on: OVCAR-5
OVCAR-8 = tested on: OVCAR-8
TK-10 = tested on: TK-10
SW-620 = tested on: SW-620
SF-295 = tested on: SF-295
NCI-H460 = tested on: NCI-H460
DU-145 = tested on: DU-145
UACC-62 = tested on: UACC-62
SNB-75 = tested on: SNB-75
RXF 393 = tested on: RXF 393
BT-549 = tested on: BT-549
Malme-3M = tested on: Malme-3M

For `CON(C)C(=O)C1CCCO1` (stereo not given), the GI50 (SR) was > 100 µM (inactive), the GI50 (LOX IMVI) was > 100 µM (inactive) and the GI50 (MOLT-4) was > 100 µM (inactive). The GI50 (IGROV-1) was > 100 µM (inactive), the GI50 (NCI-H226) was > 100 µM (inactive) and the GI50 (KM12) was > 100 µM (inactive). The GI50 (MDA-N) was > 100 µM (inactive), the GI50 (PC-3) was > 100 µM (inactive) and the GI50 (SK-MEL-5) was 67 µM (inactive). For the same compound, the GI50 (NCI-H522) was > 100 µM (inactive), the GI50 (SK-MEL-2) was > 100 µM (inactive) and the GI50 (SNB-19) was > 100 µM (inactive). For the same compound, the GI50 (EKVX) was 39.5 µM (inactive), the GI50 (SK-OV-3) was > 100 µM (inactive) and the GI50 (786-0) was > 100 µM (inactive). The GI50 (ACHN) was > 100 µM (inactive), the GI50 (Hs-578T) was > 100 µM (inactive) and the GI50 (M14) was > 100 µM (inactive). For the same compound, the GI50 (MCF7) was > 100 µM (inactive), the GI50 (HL-60) was 34.5 µM (inactive) and the GI50 (T47D) was > 100 µM (inactive). For the same compound, the GI50 (HOP-92) was > 100 µM (inactive), the GI50 (RPMI-8226) was 68.7 µM (inactive) and the GI50 (COLO 205) was > 100 µM (inactive). For the same compound, the GI50 (OVCAR-3) was > 100 µM (inactive), the GI50 (HT-29) was > 100 µM (inactive) and the GI50 (NCI-H23) was 18.5 µM (inactive). For the same compound, the GI50 (SN12C) was > 100 µM (inactive), the GI50 (A498) was > 100 µM (inactive) and the GI50 (SF-539) was > 100 µM (inactive). For the same compound, the GI50 (K562) was > 100 µM (inactive), the GI50 (HCT-15) was greater than 100 µM and the GI50 (MDA-MB-231) was > 100 µM (inactive). The GI50 (U-251) was > 100 µM (inactive), the GI50 (MDA-MB-435) was > 100 µM (inactive) and the GI50 (UO-31) was > 100 µM (inactive). For the same compound, the GI50 (HOP-62) was > 100 µM (inactive), the GI50 (A549) was > 100 µM (inactive) and the GI50 (OVCAR-4) was > 100 µM (inactive). The GI50 (CCRF-CEM) was > 100 µM (inactive), the GI50 (SK-MEL-28) was > 100 µM (inactive) and the GI50 (SF-268) was > 100 µM (inactive). The GI50 (CAKI-1) was > 100 µM (inactive), the GI50 (NCI/ADR-RES) was > 100 µM (inactive) and the GI50 (HCT-116) was > 100 µM (inactive). For the same compound, the GI50 (UACC-257) was 57.5 µM (inactive), the GI50 (OVCAR-5) was > 100 µM (inactive) and the GI50 (OVCAR-8) was > 100 µM (inactive). The GI50 (TK-10) was > 100 µM (inactive), the GI50 (SW-620) was > 100 µM (inactive) and the GI50 (SF-295) was > 100 µM (inactive). The GI50 (NCI-H460) was > 100 µM (inactive), the GI50 (DU-145) was > 100 µM (inactive) and the GI50 (UACC-62) was > 100 µM (inactive). The GI50 (SNB-75) was > 100 µM (inactive).
In the case of `N#CC(c1cc(Cl)ncn1)c1nc2cc(C(F)(F)F)ccc2s1` (stereo not given), the GI50 (LOX IMVI) was 3.57 µM (inactive), the GI50 (MOLT-4) was 4.74 µM (inactive) and the GI50 (IGROV-1) was 5.87 µM (inactive). The GI50 (NCI-H226) was 15.1 µM (inactive), the GI50 (KM12) was 3.27 µM (inactive) and the GI50 (RXF 393) was 4.33 µM (inactive). The GI50 (MDA-N) was 3.42 µM (inactive), the GI50 (SK-MEL-5) was 9.57 µM (inactive) and the GI50 (NCI-H522) was 1.24 µM (inactive). The GI50 (SNB-19) was 3.83 µM (inactive), the GI50 (EKVX) was 14.5 µM (inactive) and the GI50 (SK-OV-3) was 17.5 µM (inactive). For the same compound, the GI50 (786-0) was 3.3 µM (inactive), the GI50 (ACHN) was 13.6 µM (inactive) and the GI50 (M14) was 4.09 µM (inactive). For the same compound, the GI50 (T47D) was 4.29 µM (inactive), the GI50 (HOP-92) was 2.14 µM (inactive) and the GI50 (RPMI-8226) was 3.78 µM (inactive). The GI50 (COLO 205) was 3.35 µM (inactive), the GI50 (OVCAR-3) was 3.32 µM (inactive) and the GI50 (HT-29) was 3.39 µM (inactive). The GI50 (NCI-H23) was 2.58 µM (inactive), the GI50 (SN12C) was 13.7 µM (inactive) and the GI50 (A498) was 5.85 µM (inactive). For the same compound, the GI50 (SF-539) was 4.63 µM (inactive), the GI50 (K562) was 6.92 µM (inactive) and the GI50 (HCT-15) was 3.48 µM. For the same compound, the GI50 (BT-549) was 3.09 µM (inactive), the GI50 (MDA-MB-231) was 4.31 µM (inactive) and the GI50 (U-251) was 3.08 µM (inactive). The GI50 (MDA-MB-435) was 4.31 µM (inactive), the GI50 (UO-31) was 4.97 µM (inactive) and the GI50 (HOP-62) was 13.8 µM (inactive). For the same compound, the GI50 (A549) was 6.01 µM (inactive), the GI50 (OVCAR-4) was 2.97 µM (inactive) and the GI50 (SK-MEL-28) was 13 µM (inactive). The GI50 (SF-268) was 3.66 µM (inactive), the GI50 (CAKI-1) was 8.95 µM (inactive) and the GI50 (Malme-3M) was 4.14 µM (inactive). The GI50 (NCI/ADR-RES) was 3.08 µM (inactive), the GI50 (HCT-116) was 2.97 µM (inactive) and the GI50 (UACC-257) was 4.24 µM (inactive). The GI50 (OVCAR-5) was 3.78 µM (inactive), the GI50 (OVCAR-8) was 3.83 µM (inactive) and the GI50 (TK-10) was 6.15 µM (inactive). The GI50 (SW-620) was 5.37 µM (inactive), the GI50 (SF-295) was 7.33 µM (inactive) and the GI50 (NCI-H460) was 4.78 µM (inactive). The GI50 (DU-145) was 12.9 µM (inactive) and the GI50 (SNB-75) was 5.79 µM (inactive).
